Values joined by “and” are separate entries in the source; they are usually repeats but may differ in a detail not shown here. Equal values may be shown once. Where a name gives a salt, the structure may show the parent alone.
Columns and labels:
[1] = tested on: Lewis lung carcinoma lung metastases; assay: Lung metastases of Lewis lung carcinoma; format: in vivo, mouse (male C57BL); parameters: Lung Metastases: unit not given here
Protocol: (§1) The Lewis lung tumor was carried in male C57BL mice (Taconic Laboratories, Germantown, N.Y.). For the experiments, 2×10^6 tumor cells prepared from a brei of several stock tumors were implanted subctaneously into the legs of male mice aged 8-10 weeks. […] Animals bearing Lewis lung tumors were treated daily with intraperitoneal Mino (10 mg/kg), Diflun (15 mg/kg) or Sulin (15 mg/kg) on days 4-18 following tumor implantation. When the tumors had reached a volume of approximately 100 mm^3 (day 7 after tumor cell implantation), cytotoxic therapy was initiated.
Therapy consisted of treatment with an antitumor alkylating agent, an antitumor antimetabolite, a non-steroidal anti-inflammatory drug (NSAID) and/or UPHS. […] CTX therapy consisted of three successive 150 mg/kg CTX doses administered by intraperitoneal injections on days 7, 9 and 11. BCNU therapy consisted of three successive 15 mg/Kg BCNU doses administered by intraperitoneal injections on days 7, 9 and 11. Therapy with the antimetabolite 5-fluorouracil(5-FU) consisted of 4 successive 40 mg/kg 5-FU doses administered by intraperitoneal injections daily on days 7 to 11. The 5-FU was purchased from Sigma Chemical Co., St. Louis, Mo. Fourteen doses of 10 mg/kg of NSAID were administered daily by intraperitoneal injections on days 4 to 18. UPHS was injected into the tail vein in 8 ml/kg doses daily on days 7-11. […]

Lewis lung carcinoma = Lewis lung carcinoma growth delay; format: in vivo, mouse (male C57BL); settings: for Lewis lung carcinoma growth delay, Mean Days: NSAID days 4-18
Protocol: as §1
Therapy consisted of treatment with an antitumor alkylating agent, an antitumor antimetabolite, a non-steroidal anti-inflammatory drug (NSAID) and/or UPHS. […] CTX therapy consisted of three successive 150 mg/kg CTX doses administered by intraperitoneal injections on days 7, 9 and 11. BCNU therapy consisted of three successive 15 mg/Kg BCNU doses administered by intraperitoneal injections on days 7, 9 and 11. Therapy with the antimetabolite 5-fluorouracil(5-FU) consisted of 4 successive 40 mg/kg 5-FU doses administered by intraperitoneal injections daily on days 7 to 11. The 5-FU was purchased from Sigma Chemical Co., St. Louis, Mo. Fourteen doses of 10 mg/kg of NSAID were administered daily by intraperitoneal injections on days 4 to 18. UPHS was injected into the tail vein in 8 ml/kg doses daily on days 7-11.
The progress of each tumor was measured thrice weekly until it had reached a volume of 500 mm^3. Tumor growth delay was calculated as the number of days required for each treated tumor to reach a volume of 500 mm^3 as compared with untreated control tumors. Each treatment group comprised six animals and the experiment was repeated three times.
On the twentieth day after the subcutaneous tumor implantation, the delay in Lewis Lung Carcinoma tumor growth was evaluated. Tumor growth delay data is presented as the mean value ±SE calculated for the treatment group as compared with the control group.

[2] = tested on: subcutaneous 9L gliosarcoma; assay: Subcutaneous 9L gliosarcoma tumor growth delay; format: in vivo, rat (male Fischer 344)
Protocol: (§2) The 9L gliosarcoma (9L) cells were obtained as a gift of 9L/SF gliosarcoma cells from Dr. Dennis Dean, University of California, San Francisco. These cells were maintained in culture in .varies.-MEM (Grand Island Biological Co., Grand Island, N.Y.) and supplemented with 10% fetal bovine serum (Sterile Systems, Inc., Logan, Utah) and with antibiotics. The 9L cells (4×10^4) in 10 μL of media without serum were implanted intracranially in male Fischer 344 rats (Taconic Farms, Germantown, N.Y.) weighing 200-250 gm on day 0. Each rat was anesthetized with sodium pentobarbital. A midline scalp incision was made and a hole was bored through the skull with 23 gauge needle at a point 2 mm lateral to the midline. The cell suspension was injected into the right frontal lobe at a depth of 3 mm from the dural surface. The needle was removed and the hole filled with dental cement. The scalp was sealed with a surgical clip. Two days later 9L cells (2×10^6) were implanted subcutaneously into the flank of each animal. When the tumors were approximately 100 mm^3 in volume, 7 days after tumor cell implantation, 8 ml/kg of UPHS was injected via the tail vein. After injecting the UPHS, administration of chemotherapeutic agents was initiated. […] BCNU therapy consisted of three 15 mg/kg BCNU doses administered by intraperitoneal injection days 7, 9 and 11. CTX and ifosfamide (IFOS) therapy consisted of three 100 mg/kg CTX or IFOS doses administered by intraperitoneal injection on days 7, 9 and 11. For the BCNU, CTX and IFOS therapies, UPHS was intravenously administered prior to each chemotherapeutic agent injection on days 7, 9 and 11. The IFOS was purchased from the Dana-Farber Cancer Institute. Survival of animals was monitored daily. Animals that were moribund or unable to reach food or water were killed by CO2 inhalation.
The progress of each subcutaneous tumor was measured 3 times/week until it reached a volume of 500 mm^3. Tumor growth delay was calculated as the number of days for each individual tumor to reach 500 mm^3 compared with untreated controls. Each treatment group had 4 animals and the experiment was repeated twice. Days of tumor growth delay are the mean ±SE for the treatment group compared with the control.

[3] = tested on: intracranial 9L gliosarcoma; assay: Life span of rats with intracranial 9L gliosarcoma; format: in vivo, rat (male Fischer 344)
Protocol: as §2
The effect of the treatments on the growth of the intracranial tumor was determined by the increase in life span of treated groups compared with the untreated controls. A percentage increase in life span of 25% or more is therapeutically significant.

[4] = WITH UPHS (8 ml/kg daily days 7-11), CDDP or PAM 10 mg/kg, CTX 3 x 150, BCNU 3 x 15, 5-FU 40 mg/kg
[5] = WITHOUT UPHS, CDDP or PAM 10 mg/kg day 7, CTX 3 x 150, BCNU 3 x 15 mg/kg days 7, 9, 11, 5-FU 40 mg/kg
[6] = relative statement among BCNU, CTX, CDDP, IFOS

Row | SMILES | Lung Metastases ([1]; WITH UPHS) | Lung Metastases (% Large) ([1]; WITH UPHS) | Lung Metastases ([1]; WITHOUT UPHS) | Lung Metastases (% Large) ([1]; WITHOUT UPHS) | Lewis lung carcinoma growth delay, Mean Days (Lewis lung carcinoma; [4]) | Lewis lung carcinoma growth delay, Mean Days (Lewis lung carcinoma; [5]) | Increase of growth delay by addition of UPHS (Lewis lung carcinoma; drug + UPHS vs drug) | Subcutaneous 9L Tumor Growth Delay, Mean Days ([2]; Table III, days to 500 mm^3 vs control (19.5 ± 0.5 days), CDDP 8 mg/kg day 7, BCNU 3 x 15, CTX or IFOS 3 x 100 mg/kg, UPHS 8 ml/kg) | Increase in tumor growth delay by prior administration of UPHS ([2]; UPHS + drug vs drug alone) | Effectiveness against subcutaneous 9L tumors [2, 6] | % Increased from Control (life span) ([3]; Table II, vs untreated control) | Survival Days ([3]; Table II, control 26 ± 2.2 days, CDDP 8 mg/kg day 7, BCNU 3 x 15, CTX or IFOS 3 x 100 mg/kg days 7, 9, 11, UPHS 8 ml/kg) | Increase in life span with UPHS prior to the drug therapy ([3]; UPHS prior to drug, vs untreated control) | Significance of increase in life span, drug alone ([3]; drug alone, 25% or more is therapeutically significant) | Increase in therapeutic response upon addition of UPHS ([3]; intracranial (life span) and subcutaneous (growth delay) 9L tumors) | Effectiveness against intracranial 9L tumors [3, 6] | Effect of addition of NSAIDs (with or without UPHS) to cytotoxic agents on growth delay (Lewis lung carcinoma; mouse, in vivo)
1 | O=c1[nH]cc(F)c(=O)[nH]1 [5-FU, 5-fluorouracil] | 15 | 40% | 21 | 52% | 6.3 ± 0.5 days | 5.4 ± 0.4 days | also enhanced, to a lesser degree |  |  |  |  |  |  |  |  |  | 
2 | O=C(O)c1cc(-c2ccc(F)cc2F)ccc1O [Diflun, Diflunisal] | 20 | 55% | 20 | 51% | 0.9 ± 0.3 days | 0.3 ± 0.2 days |  |  |  |  |  |  |  |  |  |  | 
3 | O=P1(NCCCl)OCCCN1CCCl (centres unmarked) [IFOS, ifosfamide] |  |  |  |  |  |  |  | 10.4 ± 0.9 days | 1.4 fold | very effective treatments for subcutaneously growing 9L tumors | 19% and 38% | 30.9 days and 35.9 days | 38% | did not reach significance | greatest increases in therapeutic response upon addition of UPHS | least effective treatments for intracranial 9L tumors | 
4 | CN(C)c1ccc(O)c2c1C[C@H]1C[C@H]3[C@H](N(C)C)C(O)=C(C(N)=O)C(=O)[C@@]3(O)C(O)=C1C2=O [Mino, minocycline hydrochloride] | 20 | 65% | 20 | 50% | 1.0 ± 0.4 days | 0.8 ± 0.3 days |  |  |  |  |  |  |  |  |  |  | 
5 | CC1=C(CC(=O)O)c2cc(F)ccc2/C1=C\c1ccc([S+](C)[O-])cc1 (centres unmarked) [Sulin, Sulindac] | 21 | 57% | 19 | 55% | 0.5 ± 0.3 days | 1.2 ± 0.4 days |  |  |  |  |  |  |  |  |  |  | providing the best NSAID results

Source: US5679638A, “Method for treating a tumor with a chemotherapeutic agent” (Biopure Corporation, priority 1993, dated 1997)
